Results published in patent US20140080762A1, “HYD1 PEPTIDES FOR RELAPSED CANCER” (H. LEE MOFFITT CANCER CENTER AND RESEARCH INSTITUTE, INC., priority 2011, published 2014).
“Also recorded” adds a separate entry of the source. Values belong to the molecule of their own block, whether it stands above or below them.

How the values were obtained:
[1] = test system: epithelial prostate carcinoma cells; details: cited from earlier work
H929-60 cells [2] = experiment: Cross-resistance of H929-60 cells to standard myeloma agents (annexin V FITC/PI, IC50); type: cell-based, human; details: 24 hours; p>0.05
Procedure: FIG. 19. H929-60 cells are not resistant to standard myeloma therapies. H929 and H929-60 cells were treated with increasing concentrations of melphalan or Velcade for 24 hours. After 24 hours, cells were stained with annexin V FITC/P1 for 45 minutes and acquired on FACScan. IC50 values were determined by linear regressions. […] Shown in the table of FIG. 19 is the mean and standard deviations of three independent experiments.

H929-60 cells [3] = experiment: HS-5 stroma co-culture model of drug resistance, H929-60 cells; type: cell-based, human
Procedure: FIGS. 15A-15C. […] FIG. 15A: H929 and H929-60 pre-incubated with CMFDA dye were adhered to 10,000 HS-5 cells for 2 hours. After 2 hours unadherent cells were removed and the fluorescence intensity was measured on a fluorescent plate reader. FIGS. 15B and 15C: H929 and H929-60 cells were adhered to HS-5 GFP cells for 24 hours. After 24 hours samples were treated with 15 μM melphalan or 16 nM velcade for 24 hours. Cell death was analyzed using a FACScalibur with the GFP expressing HS-5 cells being excluded from the analysis. In FIGS. 15A-15C, a representative of three independent experiments was shown. (*=p<0.05, n=9 or#=p>0.05, n=9 Students t-test).
The inventors reasoned that acquisition of resistance towards HYD1, which correlated with reduced functional binding to fibronectin, VCAM-1, and HS-5 stromal cells, would likely result in a compromised CAMDR phenotype. To test this premise, the inventors utilized the HS-5 co-culture model of drug resistance. H929 and the HYD1 resistant variant H929-60 cells were treated with either melphalan or velcade in the presence or absence of HS-5/GFP bone marrow stromal cells. As shown in FIGS. 15B and 15C, the HYD1 resistant cell line was not resistant in the co-culture bone marrow stroma model to melphalan or velcade, respectively.

[4] = target: human CD44 ectodomain (human) (UniProt P16070); experiment: SPR; experiment 11/29
Chain of human CD44 ectodomain (human) (P16070 21-649): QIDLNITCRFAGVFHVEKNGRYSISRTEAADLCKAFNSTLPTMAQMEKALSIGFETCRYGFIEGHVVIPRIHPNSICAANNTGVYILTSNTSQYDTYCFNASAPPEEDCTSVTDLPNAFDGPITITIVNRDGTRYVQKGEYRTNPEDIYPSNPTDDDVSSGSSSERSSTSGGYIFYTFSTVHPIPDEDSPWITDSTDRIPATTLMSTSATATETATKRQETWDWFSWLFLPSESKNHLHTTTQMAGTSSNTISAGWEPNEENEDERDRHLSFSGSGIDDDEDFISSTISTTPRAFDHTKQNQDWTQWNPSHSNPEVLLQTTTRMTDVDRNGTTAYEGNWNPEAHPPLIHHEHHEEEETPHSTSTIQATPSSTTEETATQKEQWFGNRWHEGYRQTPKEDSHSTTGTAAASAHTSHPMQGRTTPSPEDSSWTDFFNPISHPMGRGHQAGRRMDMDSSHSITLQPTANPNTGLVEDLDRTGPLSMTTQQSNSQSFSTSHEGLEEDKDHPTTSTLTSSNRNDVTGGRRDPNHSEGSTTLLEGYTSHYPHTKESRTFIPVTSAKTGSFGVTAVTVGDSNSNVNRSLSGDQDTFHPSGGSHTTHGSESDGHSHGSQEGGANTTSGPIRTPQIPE

[5] = target: human CD44 ectodomain (human) (UniProt P16070); experiment: SPR; experiment 12/05
[6] = target: human CD44 ectodomain (human) (UniProt P16070); experiment: SPR; experiment 12/09
[7] = target: human CD44 ectodomain (human) (UniProt P16070); experiment: SPR; experiment 12/05 LF
[8] = test system: CD34+ hematopoietic progenitor cells; experiment: Colony forming assay, normal CD34+ hematopoietic progenitor cells; type: cell-based; details: HYD1 12.5 and 50 μg/ml for 2 hrs; colonies counted day 12
Procedure: (§1) CD34^+ hematopoietic progenitor cells were isolated from peripheral blood and treated for 2 hrs with HYD1 (12.5 and 50 μg/ml) and then plated in a methylcellulose media supplemented with growth factors supporting myeloid and erythroid colonies. Colonies were counted on day 12 post-plating. […] In addition, the inventors evaluated the toxicity of HYD1 in normal peripheral blood mononuclear cells (PBMC).

[9] = test system: peripheral blood mononuclear cells (PBMC); experiment: Cell death in normal peripheral blood mononuclear cells; type: cell-based; details: six hours treatment, up to doses of 50 μg/ml
Procedure: as §1

H929 engrafted tumor = experiment: SCID-hu in vivo model, H929 engrafted tumor; details: 8 mg/kg i.p. daily for 21 days
Procedure: The SCID-hu model consists of implanting human fetal bone into the mammary mouse fat pad of SCID mice. The myeloma cells are subsequently injected directly into the bone and myeloma cells will engraft only in the area of the human bone. Human paraprotein can be measured in the mouse sera and levels represent a good marker for evaluating tumor burden and response to chemotherapy. Circulating kappa levels were measured on day 28 (baseline reading before peptide treatment), 35, 42 and 49 by ELISA, and tumor burden was determined by calculating the kappa levels on day X divided by the baseline kappa levels recorded on day 28 for each mouse. Shown in FIG. 2A is the antitumor response of H929 engrafted tumor when mice were given 8 mg/kg intraperitoneal (i.p.) injections daily for 21 days starting on day 28. […] Mice were humanely euthanized at […] as several control mice had tumor protruding from the bone implant. […] The inventors anticipate that because HYD1 induces cell death independent of apoptosis and blocks cell adhesion mediated drug resistance to standard therapy that the most dramatic in vivo activity will be realized when combined with standard therapy.

CD44 = experiment: Biotin-HYD1 pull-down assay (Mass-Spec, Western blot), CD44 in H929 membrane extract; type: binding, human; details: NeutrAvidin beads
Procedure: The first lane is 30 μg of membrane extract only. CD44 was detected by western blot analysis using a pan-CD44 antibody.
Samples were spun at 15000 XG for minutes at 4 degrees and the supernatant was removed and membranes were pelleted at 100,000Xg for 15 minutes. Membrane pellets were solubilized in AP buffer containing 0.2% NP40 and protein was quantified using BCA reagents (Pierce, Rockford, Ill.). […] After one hour, the beads were washed twice in AP buffer and 50 ug of membrane extracts were added to a total volume of 500 μl and incubated with beads overnight at 4 degrees. The beads were washed five times in AP buffer containing 0.2% NP40 and samples were suspended in SDS-PAGE sample buffer and bound proteins were resolved by SDSPAGE.
NeutrAvidin beads were used to reduce non-specific binding. […] The binding experiment was repeated using 300 ug of membrane extract. […] The inventors next determined whether α4 integrin could be detected by western blot analysis. […] To determine whether CD44 was indeed a direct binding partner of CD44 the inventors used recombinant CD44 and an ELISA as a readout of binding. The recombinant CD44 protein (purchased from Abnova) corresponds to Isoform 4 on Swiss Prot. The amino acid sequence is missing 224-266 and 223 is substituted S for T relative to the longest CD44 variant referred to as epican.

recombinant CD44 = target: T1, recombinant CD44 (Homo sapiens, UniProt P16070); experiment: Direct ELISA, recombinant CD44 binding to immobilized biotin-HYD1; details: NeutrAvidin coated 96-well plates
T1 construct: purchased Abnova
T1 sequence (P16070 21-699 isoform P16070-4): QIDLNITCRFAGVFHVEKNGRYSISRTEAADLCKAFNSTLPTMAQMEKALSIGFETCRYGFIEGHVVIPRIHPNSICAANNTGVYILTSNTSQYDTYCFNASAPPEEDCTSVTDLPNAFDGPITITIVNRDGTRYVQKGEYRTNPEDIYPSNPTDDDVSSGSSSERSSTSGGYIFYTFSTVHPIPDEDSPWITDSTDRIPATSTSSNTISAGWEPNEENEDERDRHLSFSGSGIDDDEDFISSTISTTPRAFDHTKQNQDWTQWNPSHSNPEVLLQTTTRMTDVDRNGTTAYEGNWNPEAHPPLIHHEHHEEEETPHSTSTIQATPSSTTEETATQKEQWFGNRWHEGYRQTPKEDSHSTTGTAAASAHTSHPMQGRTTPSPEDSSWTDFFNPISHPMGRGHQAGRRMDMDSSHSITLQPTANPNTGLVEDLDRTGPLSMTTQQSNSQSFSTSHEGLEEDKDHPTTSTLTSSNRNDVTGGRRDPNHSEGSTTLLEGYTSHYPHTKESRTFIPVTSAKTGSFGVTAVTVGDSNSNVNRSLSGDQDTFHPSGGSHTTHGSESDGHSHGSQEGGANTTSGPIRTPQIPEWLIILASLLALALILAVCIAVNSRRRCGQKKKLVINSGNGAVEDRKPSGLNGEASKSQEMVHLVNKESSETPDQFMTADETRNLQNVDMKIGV
Procedure: The pull down assay was directly coupled with an unbiased Mass-Spec analysis to identify HYD1 binding partners. […] NeutrAvidin beads were used to reduce non-specific binding. […] The binding experiment was repeated using 300 ug of membrane extract. […] The inventors next determined whether α4 integrin could be detected by western blot analysis. […] To determine whether CD44 was indeed a direct binding partner of CD44 the inventors used recombinant CD44 and an ELISA as a readout of binding. The recombinant CD44 protein (purchased from Abnova) corresponds to Isoform 4 on Swiss Prot. The amino acid sequence is missing 224-266 and 223 is substituted S for T relative to the longest CD44 variant referred to as epican.

U226 cells = experiment: Combination cytotoxicity assay with HYD1 in U226 cells; type: cell-based; details: in vitro
Text: FIG. 8. Table of combination index (CI) summary for combinations of HYD1 and SAHA, etoposide, arsenic, Vel, or doxorubicin in U226 cells.

MM cells = experiment: Characterisation of HYD1-induced cell death in MM cells (apoptosis markers, autophagy, NAC protection); type: cell-based
H929-60 cells [10] = experiment: FAM-HYD1 binding to cells by FACS, H929-60 cells; type: cell-based, human
Procedure: (§2) FIGS. 18A, 18B-1, 18B-2, and 18B-3. […] FIG. 18A: H929 and H929-60 cells (4×10^5 cells/ml) were incubated with FAM-HYD1 (6.25, 12.5 μg/ml) on ice for 15 minutes. FACS analysis was used to determine the geometric mean of fluorescence of FAM-HYD1 bound to H929 and H929-60 cells. A representative of three independent experiments is shown. A student's t-test was performed to determine significance (* denotes p<0.05). FIGS. 18B-1, 18B-2, and 18B-3: When the dose of FAM-HYD1 was increased to 12.5 μg/ml FAM-HYD1 binding to plasma membrane was detected in the resistant cell line as determine by confocal microscopy.

H929 cells = experiment: Confocal microscopy of FAM-HYD1 binding, H929 cells; type: cell-based, human; details: 6.25 μg/ml FAM-HYD1, 10 minutes
Procedure: FIGS. 11A-11E. […] FIG. 11B: Loss of mitochondrial membrane […] was determined using DiOC6 staining following 2 hours of HYD1 treatment in H929 and H929-60 (* denotes p<0.05 n=9, Student's t-test). FIG. 11C: ATP levels were determined in the H929 and H929-60 cell lines following 6 hours of HYD1 (50 ug/ml) treatment. (* denotes p<0.05 and # denotes p>0.05, n=9, Student's t-test). FIGS. 11D and 11E: H929 cell (FIG. 11D) and H929-60 cells (FIG. 11E) were stained with Alexa Fluor 594 wheat germ agglutinin (WGA) and Hoechst 33342 for 30 minutes. 6.25 μg/ml FAM-HYD1 was added 10 minutes before images were taken. The experiment was repeated 3 independent times and shown is a representative experiment.
(§3) To assess whether (a) HYD1 bound the cell surface and (b) whether binding of HYD1 was reduced in the resistant cell line FAM-HYD1 was used to image peptide binding in the parental and resistant cell line by confocal microscopy. A 35 mm glass bottom microwell dishes (Mattek cultureware, Ashland, Mass.) were plated with 10 uL Cell-tak (BD biosciences) per manufacture's instructions. Media containing 1 uM Alexa Fluor 594 wheat germ agglutinin (WGA) (Invitrogen) and 20 uM Hoechst 33342 (Invitrogen) was placed back in the plates and the samples were incubated for 30 minutes. After 30 minutes, the cells were washed and treated with media containing 6.25 μg/ml FAM conjugated HYD1 for 10 minutes. […]

H929-60 cells [11] = experiment: Confocal microscopy of FAM-HYD1 binding, H929-60 cells; type: cell-based, human; details: 12.5 μg/ml FAM-HYD1, confocal microscopy
Procedure: as §2, §3

Molecule: WIKSMKIVKG (HYD1 variant) [HYD1S, a scrambled derivative of HYD1]
inhibition of cell adhesion to extracellular matrixes (laminin 5, laminin 332, collagen, fibronectin) [1]: not to inhibit cell adhesion

Molecule: O=C1c2c(O)ccc(O)c2C(=O)c2c(NCCNCCO)ccc(NCCNCCO)c21 [mitoxantrone]
IC50 values, H929-60 compared to parental H929 (cross-resistance) (H929-60 cells [2]): not resistant

Molecule: CC(C)C[C@H](NC(=O)[C@H](Cc1ccccc1)NC(=O)c1cnccn1)B(O)O [Velcade]
IC50 values, H929-60 compared to parental H929 (cross-resistance) (H929-60 cells [2]): not resistant; also recorded: not deemed to be significant | velcade induced cell death in HS-5 co-culture, H929-60 (H929-60 cells [3]; 16 nM velcade for 24 hours): not resistant

Kd [4]: 40.2 nM | Kd [5]: 22.6 nM | Kd [6]: 40.9 nM | Kd [7]: 26.7 nM
Molecule: HYD1

Molecule: CC[C@@H](C)[C@@H](NC(=O)[C@H](N)CCCCN)C(=O)N[C@H](CCCCN)C(=O)N[C@H](CCSC)C(=O)N[C@@H](C(=O)N[C@@H](C(=O)N[C@H](CO)C(=O)N[C@H](Cc1c[nH]c2ccccc12)C(=O)N[C@H](CCCCN)C(=O)NCC(=O)O)[C@H](C)CC)C(C)C [HYD1]
colony formation of normal CD34+ cells [8]: did not inhibit colony formation; also recorded: did not inhibit differentiation or colony formation | cell death in PBMC [9]: did not induce cell death; also recorded: not sensitive | overt toxicity or weight loss (H929 engrafted tumor): no overt toxicity or weight loss

Molecule: N[C@@H](Cc1ccc(N(CCCl)CCCl)cc1)C(=O)O [melphalan]
IC50 values, H929-60 compared to parental H929 (cross-resistance) (H929-60 cells [2]): not resistant; also recorded: not deemed to be significant | melphalan induced cell death in HS-5 co-culture, H929-60 (H929-60 cells [3]; 15 μM melphalan for 24 hours): not resistant

Molecule: O=C(O)CCCC[C@@H]1SC[C@@H]2NC(=O)N[C@@H]21 [biotin]
interaction with CD44 (pull-down) (CD44): not | binding of recombinant CD44 (ELISA) (recombinant CD44): relatively no binding

Molecule: COc1cccc2c1C(=O)c1c(O)c3c(c(O)c1C2=O)C[C@@](O)(C(=O)CO)C[C@@H]3O[C@H]1C[C@H](N)[C@H](O)[C@H](C)O1 [Doxorubicin]
synergy in combination with HYD1 (combination index) (U226 cells): greatest levels of synergy; also recorded: most synergistic

Molecule: CC(=O)N[C@@H](CS)C(=O)O [N-acetyl-L-cysteine]
protection of MM cells from HYD1-induced death (MM cells): partially protects

Molecule: FAM-kikmviswkg [FAM-HYD1]
reduction in FAM-HYD1 binding relative to the parental cell line (H929-60 cells [10]; 6.25 ug/ml FAM-HYD1, FACS): 2.7 fold | FAM-HYD1 binding to the cell surface, H929-60 compared to H929 (H929-60 cells [10]; 6.25, 12.5 μg/ml, on ice 15 minutes): reduced binding; also recorded: decreased FAM-HYD1 binding | localization of FAM-HYD1, H929 (H929 cells): localizes to the plasma membrane | FAM-HYD1 binding to plasma membrane, H929-60 (H929-60 cells [11]): detected
